According to PMC3577938 (Organic & biomolecular chemistry, 2013):

What was measured:
human TLR7 = biological target: T1, human TLR7 (Homo sapiens, UniProt Q9NYK1); test: Human TLR7-specific reporter gene assay; type: cell-based; conditions: EC50 in human TLR7-specific reporter gene assay; Inactive = EC50 >100 μM
T1 sequence (Q9NYK1 27-1049): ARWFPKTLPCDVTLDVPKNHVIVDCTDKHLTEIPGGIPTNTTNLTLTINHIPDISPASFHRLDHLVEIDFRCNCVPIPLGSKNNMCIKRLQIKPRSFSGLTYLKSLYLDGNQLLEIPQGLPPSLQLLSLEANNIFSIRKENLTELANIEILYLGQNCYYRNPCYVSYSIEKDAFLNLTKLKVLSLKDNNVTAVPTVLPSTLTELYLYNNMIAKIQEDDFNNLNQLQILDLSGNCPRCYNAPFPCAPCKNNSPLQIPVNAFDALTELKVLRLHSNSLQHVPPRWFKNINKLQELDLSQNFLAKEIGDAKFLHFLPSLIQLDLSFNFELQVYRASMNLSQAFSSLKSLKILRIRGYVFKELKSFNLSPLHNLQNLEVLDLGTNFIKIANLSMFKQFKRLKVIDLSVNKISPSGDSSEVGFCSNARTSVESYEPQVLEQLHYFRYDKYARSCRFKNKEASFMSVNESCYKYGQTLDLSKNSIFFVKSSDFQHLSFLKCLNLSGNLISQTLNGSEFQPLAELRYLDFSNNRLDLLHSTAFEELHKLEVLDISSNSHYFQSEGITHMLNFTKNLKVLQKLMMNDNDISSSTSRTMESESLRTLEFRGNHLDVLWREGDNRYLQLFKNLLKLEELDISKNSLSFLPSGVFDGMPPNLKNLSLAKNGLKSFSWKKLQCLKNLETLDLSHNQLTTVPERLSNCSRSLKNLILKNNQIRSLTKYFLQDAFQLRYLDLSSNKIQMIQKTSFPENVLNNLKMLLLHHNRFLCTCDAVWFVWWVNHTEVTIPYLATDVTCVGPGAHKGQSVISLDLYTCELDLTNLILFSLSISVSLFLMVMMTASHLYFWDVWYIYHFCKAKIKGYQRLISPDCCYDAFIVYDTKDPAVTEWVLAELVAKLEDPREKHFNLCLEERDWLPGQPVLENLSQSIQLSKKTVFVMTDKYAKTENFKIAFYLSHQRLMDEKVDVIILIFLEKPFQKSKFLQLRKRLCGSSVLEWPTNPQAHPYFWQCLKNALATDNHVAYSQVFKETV

human TLR8 = biological target: T2, human TLR8 (Homo sapiens, UniProt Q9NR97); test: Human TLR8-specific reporter gene assay; type: cell-based; conditions: for Agonistic Activity (μM) TLR8: EC50 in human TLR8-specific reporter gene assay, Inactive = EC50 >100 μM; for TLR8-agonistic potency/activity (in words): hTLR8 reporter gene assay
T2 sequence (Q9NR97 27-1041): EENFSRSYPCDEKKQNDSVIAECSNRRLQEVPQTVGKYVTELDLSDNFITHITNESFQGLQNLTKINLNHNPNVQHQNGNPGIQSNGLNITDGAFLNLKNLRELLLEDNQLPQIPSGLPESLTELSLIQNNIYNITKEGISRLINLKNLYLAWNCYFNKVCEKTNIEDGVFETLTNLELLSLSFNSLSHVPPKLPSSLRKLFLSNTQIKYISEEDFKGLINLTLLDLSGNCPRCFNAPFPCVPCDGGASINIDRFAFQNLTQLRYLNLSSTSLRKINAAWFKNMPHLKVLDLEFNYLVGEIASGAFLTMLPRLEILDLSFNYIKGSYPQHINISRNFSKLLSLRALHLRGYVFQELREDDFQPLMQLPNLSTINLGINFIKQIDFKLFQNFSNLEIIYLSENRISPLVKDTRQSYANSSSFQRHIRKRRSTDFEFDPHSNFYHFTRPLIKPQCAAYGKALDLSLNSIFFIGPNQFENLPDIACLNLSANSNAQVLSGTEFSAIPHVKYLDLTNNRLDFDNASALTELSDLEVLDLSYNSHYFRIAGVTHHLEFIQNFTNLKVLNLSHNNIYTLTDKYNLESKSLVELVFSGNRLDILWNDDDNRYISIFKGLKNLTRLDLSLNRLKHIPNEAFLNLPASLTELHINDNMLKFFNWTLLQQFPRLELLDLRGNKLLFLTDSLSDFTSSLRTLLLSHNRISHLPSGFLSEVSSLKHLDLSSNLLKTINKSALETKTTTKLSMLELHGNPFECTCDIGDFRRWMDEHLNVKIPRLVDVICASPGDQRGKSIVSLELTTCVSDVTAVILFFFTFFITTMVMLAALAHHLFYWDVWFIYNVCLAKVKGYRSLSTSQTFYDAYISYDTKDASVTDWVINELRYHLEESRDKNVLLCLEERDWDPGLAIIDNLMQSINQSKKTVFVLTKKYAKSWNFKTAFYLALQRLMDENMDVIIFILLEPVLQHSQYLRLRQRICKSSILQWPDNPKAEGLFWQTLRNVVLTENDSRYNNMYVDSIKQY

## CCCc1nc2c(NC(=O)CCN=[N+]=[N-])nc3ccccc3c2s1 [Compound 15k, 3-azido-N-(2-propylthiazolo[4,5-c]quinolin-4-yl)propanamide]
Human TLR7
  Agonistic Activity (μM) TLR7: Inactive

## CCCc1cn(-c2ccc3nc(N)c4nc(CCC)sc4c3c2)nn1 [Compound 12d, 2-propyl-8-(4-propyl-1H-1,2,3-triazol-1-yl)thiazolo[4,5-c]quinolin-4-amine]
Human TLR7
  Agonistic Activity (μM) TLR7: Inactive
Human TLR8
  Agonistic Activity (μM) TLR8: Inactive

## CCCCOC(=O)Nc1nc2ccccc2c2sc(CCC)nc12 [Compound 15o, butyl (2-propylthiazolo[4,5-c]quinolin-4-yl)carbamate]
Human TLR7
  Agonistic Activity (μM) TLR7: Inactive
Human TLR8
  Agonistic Activity (μM) TLR8: Inactive

## CCCc1nc2c(NS(=O)(=O)c3ccc(C)cc3)nc3ccccc3c2s1 [Compound 15v, 4-methyl-N-(2-propylthiazolo[4,5-c]quinolin-4-yl)benzenesulfonamide]
Human TLR7
  Agonistic Activity (μM) TLR7: Inactive
Human TLR8
  Agonistic Activity (μM) TLR8: Inactive

## CCCCCCc1nc2c(N)nc3ccccc3c2s1 [Compound 8f, 2-hexylthiazolo[4,5-c]quinolin-4-amine]
Human TLR7
  Agonistic Activity (μM) TLR7: Inactive
Human TLR8
  Agonistic Activity (μM) TLR8: Inactive^a

## CCCCCCCCOC(=O)Nc1nc2ccccc2c2sc(CCC)nc12 [Compound 15p, octyl (2-propylthiazolo[4,5-c]quinolin-4-yl)carbamate]
Human TLR7
  Agonistic Activity (μM) TLR7: Inactive
Human TLR8
  Agonistic Activity (μM) TLR8: Inactive

## CCCc1nc2c(N)nc3ccc(-n4cc(-c5ccccc5)nn4)cc3c2s1 [Compound 12c, 8-(4-phenyl-1H-1,2,3-triazol-1-yl)-2-propylthiazolo[4,5-c]quinolin-4-amine]
Human TLR7
  Agonistic Activity (μM) TLR7: Inactive
Human TLR8
  Agonistic Activity (μM) TLR8: Inactive

## CCCc1nc2c(N)nc3ccc(-n4ccnn4)cc3c2s1 [Compound 12g, 2-propyl-8-(1H-1,2,3-triazol-1-yl)thiazolo[4,5-c]quinolin-4-amine]
Human TLR7
  Agonistic Activity (μM) TLR7: Inactive
Human TLR8
  Agonistic Activity (μM) TLR8: Inactive

## CCCc1nc2c(NC(=O)OC)nc3ccccc3c2s1 [Compound 15m, methyl (2-propylthiazolo[4,5-c]quinolin-4-yl)carbamate]
Human TLR7
  Agonistic Activity (μM) TLR7: Inactive
Human TLR8
  Agonistic Activity (μM) TLR8: Weak

## CCCc1nc2c(NS(C)(=O)=O)nc3ccccc3c2s1 [Compound 15r, N-(2-propylthiazolo[4,5-c]quinolin-4-yl)methanesulfonamide]
Human TLR7
  Agonistic Activity (μM) TLR7: Inactive

## C#CCCC(=O)Nc1nc2ccccc2c2sc(CCC)nc12 [Compound 15l, N-(2-propylthiazolo[4,5-c]quinolin-4-yl)pent-4-ynamide]
Human TLR7
  Agonistic Activity (μM) TLR7: Inactive

## CCCc1nc2c(NC(C)=O)nc3ccccc3c2s1 [Compound 15e, N-(2-propylthiazolo[4,5-c]quinolin-4-yl)acetamide]
Human TLR7
  Agonistic Activity (μM) TLR7: Inactive
Human TLR8
  TLR8-agonistic potency/activity (in words): virtually inactive

## Nc1nc2ccccc2c2sc(CCCC(F)(F)F)nc12 [Compound 8q, 2-(4,4,4-trifluorobutyl)thiazolo[4,5-c]quinolin-4-amine]
Human TLR8
  TLR8-agonistic potency/activity (in words): decrease in potency

## CCCCCc1nc2c(N)nc3ccccc3c2s1 [Compound 8e, 2-pentylthiazolo[4,5-c]quinolin-4-amine]
Human TLR8
  TLR8-agonistic potency/activity (in words): attenuation of potency

## CCCc1nc2c(N)nc3ccc(-n4cc([Si](C)(C)C)nn4)cc3c2s1 [Compound 12f, 2-propyl-8-(4-(trimethylsilyl)-1H-1,2,3-triazol-1-yl)thiazolo[4,5-c]quinolin-4-amine]
Human TLR7
  Agonistic Activity (μM) TLR7: Inactive
